According to PubChem BioAssay AID2060329 (Molecular Pharmacology Branch, DTP, NCI, 2025):
Where “and” joins values, the source holds several entries; their conditions need not be identical. Equal entries are not always repeated.

Tested on: MCF7 multi-cell spheroids with HUVEC/MSC, viability
Experiment: Anticancer human tumor MCF7 cell line growth inhibition [IpAb];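 also: spheroids exposed to agents for seven days before readout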
Settings: for viability, T/C: stronger effect = lower value; active = viability on the fitted dose curve at most 10% of control; inactive = the rest
Method in brief: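 Spheroids of 60% malignant cells, 25% HUVEC and 15% MSC were exposed to targeted agents combined with ipatasertib or abemaciclib. Doses started at or near clinical Cmax (10 microM when unknown) and fell in half-log steps.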

[1] = curve of first compound, second compound 0.1 µM
[2] = curve of first compound, second compound 0.316 µM
[3] = curve of first compound, second compound 1 µM
[4] = second compound 0.1 µM, first compound 0.0316 µM
[5] = second compound 0.1 µM, first compound 0.1 µM
[6] = second compound 0.1 µM, first compound 0.316 µM
[7] = second compound 0.1 µM, first compound 1 µM
[8] = second compound 0.1 µM, first compound 3.16 µM
[9] = second compound 0.1 µM, first compound 10 µM
[10] = second compound 0.316 µM, first compound 0.0316 µM
[11] = second compound 0.316 µM, first compound 0.1 µM
[12] = second compound 0.316 µM, first compound 0.316 µM
[13] = second compound 0.316 µM, first compound 1 µM
[14] = second compound 0.316 µM, first compound 3.16 µM
[15] = second compound 0.316 µM, first compound 10 µM
[16] = second compound 1 µM, first compound 0.0316 µM
[17] = second compound 1 µM, first compound 0.1 µM
[18] = second compound 1 µM, first compound 0.316 µM
[19] = second compound 1 µM, first compound 1 µM
[20] = second compound 1 µM, first compound 3.16 µM
[21] = second compound 1 µM, first compound 10 µM

Cc1nc(NC(=O)N2CCCC2C(N)=O)sc1-c1ccnc(C(C)(C)C(F)(F)F)c1 (stereo unspecified) + CCN1CCN(Cc2ccc(Nc3ncc(F)c(-c4cc(F)c5nc(C)n(C(C)C)c5c4)n3)nc2)CC1
inactive: viability, T/C (second compound 0.01 µM, first compound 0.0316 µM) 104% | viability, T/C (second compound 0.01 µM, first compound 0.1 µM) 93.5% | viability, T/C (second compound 0.01 µM, first compound 0.316 µM) 94.8% | viability, T/C (second compound 0.01 µM, first compound 1 µM) 72.6% | viability, T/C (second compound 0.01 µM, first compound 3.16 µM) 52.2% | viability, T/C (second compound 0.01 µM, first compound 10 µM) 23.8% | viability, T/C (second compound 0.0316 µM, first compound 0.0316 µM) 112% | viability, T/C (second compound 0.0316 µM, first compound 0.1 µM) 108% | viability, T/C (second compound 0.0316 µM, first compound 0.316 µM) 91% | viability, T/C (second compound 0.0316 µM, first compound 1 µM) 63.4% | viability, T/C (second compound 0.0316 µM, first compound 3.16 µM) 48.7% | viability, T/C (second compound 0.0316 µM, first compound 10 µM) 14.2% | viability, T/C [4] 106% | viability, T/C [5] 96.6% | viability, T/C [6] 76% | viability, T/C [7] 59.4% | viability, T/C [8] 56.5% | viability, T/C [9] 27.3% | viability, T/C [10] 93% | viability, T/C [11] 105% | viability, T/C [12] 80.7% | viability, T/C [13] 61.4% | viability, T/C [14] 58.9% | viability, T/C [15] 34% | viability, T/C [16] 92.3% | viability, T/C [17] 80.2% | viability, T/C [18] 65.6% | viability, T/C [19] 69.4% | viability, T/C [20] 48% | viability, T/C [21] 33.1%
2.69 µM: IC50 [1]
3.5 µM: IC50 [2]
3.36 µM: IC50 (curve of first compound, second compound 0.01 µM)
2.73 µM: IC50 [3]
2.43 µM: IC50 (curve of first compound, second compound 0.0316 µM)

Cc1nc(NC(=O)N2CCCC2C(N)=O)sc1-c1ccnc(C(C)(C)C(F)(F)F)c1 (stereo unspecified)
inactive: viability, T/C (compound 0.0316 µM) 74.8% and 93.7% | viability, T/C (compound 0.1 µM) 64.7% and 93.4% | viability, T/C (compound 0.316 µM) 65.9% and 78.8% | viability, T/C (compound 1 µM) 47.6% and 70.3% | viability, T/C (compound 3.16 µM) 48.1% and 63.4% | viability, T/C (compound 10 µM) 36.2% and 43%
1.54 µM and 6.66 µM: IC50 (curve of compound)

CC(C)NCC(C(=O)N1CCN(c2ncnc3c2C(C)CC3O)CC1)c1ccc(Cl)cc1 (stereo unspecified)
inactive: viability, T/C (compound 0.1 µM) 86.9% [middle of 13 runs] | viability, T/C (compound 0.316 µM) 75.5% [middle of 13 runs] | viability, T/C (compound 1 µM) 65.3% [middle of 13 runs] | viability, T/C (compound 3.16 µM) 54.2% [middle of 13 runs]

Cn1nccc1Nc1nccc(-c2ccn(C(CO)c3ccc(Cl)c(F)c3)c(=O)c2)n1 (stereo unspecified) + CC(C)NCC(C(=O)N1CCN(c2ncnc3c2C(C)CC3O)CC1)c1ccc(Cl)cc1
inactive: viability, T/C [4] 82.7% | viability, T/C [5] 85.4% | viability, T/C [6] 91% | viability, T/C [7] 116% | viability, T/C [8] 113% | viability, T/C [9] 98.5% | viability, T/C [10] 72.7% | viability, T/C [11] 77.4% | viability, T/C [12] 78.3% | viability, T/C [13] 77.6% | viability, T/C [14] 99.6% | viability, T/C [15] 76.8% | viability, T/C [16] 65.2% | viability, T/C [17] 66.7% | viability, T/C [18] 74.4% | viability, T/C [19] 74.6% | viability, T/C [20] 77.7% | viability, T/C [21] 77.5% | viability, T/C (second compound 3.16 µM, first compound 0.0316 µM) 51.9% | viability, T/C (second compound 3.16 µM, first compound 0.1 µM) 55% | viability, T/C (second compound 3.16 µM, first compound 0.316 µM) 52.1% | viability, T/C (second compound 3.16 µM, first compound 1 µM) 56.2% | viability, T/C (second compound 3.16 µM, first compound 3.16 µM) 64.2% | viability, T/C (second compound 3.16 µM, first compound 10 µM) 72.6% | viability, T/C (second compound 10 µM, first compound 0.0316 µM) 43.8% | viability, T/C (second compound 10 µM, first compound 0.1 µM) 41% | viability, T/C (second compound 10 µM, first compound 0.316 µM) 38.4% | viability, T/C (second compound 10 µM, first compound 1 µM) 49.4% | viability, T/C (second compound 10 µM, first compound 3.16 µM) 44.2% | viability, T/C (second compound 10 µM, first compound 10 µM) 44.2%
> 10 µM: IC50 [1] | IC50 [2] | IC50 [3] | IC50 (curve of first compound, second compound 3.16 µM)
< 0.0316 µM: IC50 (curve of first compound, second compound 10 µM)
